Data: the supplement of paper PMC4862054

Key:
Test in all cases: drug sensitivity score (DSS), CellTiter-Glo (DSS (AUC-based score)); higher = stronger drug effect (viability inhibition or cytotoxicity); extreme values may be limits of the assay
Details in all cases: incubation time: 72 h
MDA-MB-436 = tested on: MDA-MB-436
How it was run: (§1)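 Each compound occupied 5 concentrations in 10-fold steps over its own 10,000-fold range in 384-well plates, into which breast cancer cell lines were seeded as 20 µl suspension. Following 72 h of incubation, CellTox Green fluorescence (485/520 nm) was measured, and CellTiter-Glo luminescence was measured after 10 min at room temperature. Plates were individually normalised to 0.1 % DMSO and a positive kill control. From the area under the fitted dose-response curve, a drug sensitivity score was calculated.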

CAL-51 = tested on: CAL-51
How it was run: as §1

BT-474 = tested on: BT-474
How it was run: as §1

MDA-MB-468 = tested on: MDA-MB-468
How it was run: as §1

CAL-85-1 = tested on: CAL-85-1
How it was run: as §1

MCF-10A = tested on: MCF-10A
How it was run: as §1

Hs578T = tested on: Hs578T
How it was run: as §1

HCC1599 = tested on: HCC1599
How it was run: as §1

DU-4475 = tested on: DU-4475
How it was run: as §1

SK-BR-3 = tested on: SK-BR-3
How it was run: as §1

CAL-120 = tested on: CAL-120
How it was run: as §1

BT-549 = tested on: BT-549
How it was run: as §1

Compound | drug sensitivity score (MDA-MB-436) | drug sensitivity score (CAL-51) | drug sensitivity score (BT-474) | drug sensitivity score (MDA-MB-468) | drug sensitivity score (CAL-85-1) | drug sensitivity score (MCF-10A) | drug sensitivity score (Hs578T) | drug sensitivity score (HCC1599) | drug sensitivity score (DU-4475) | drug sensitivity score (SK-BR-3) | drug sensitivity score (CAL-120) | drug sensitivity score (BT-549)
COc1cc(Nc2ncc(F)c(Nc3ccc4c(n3)N(COP(=O)(O)O)C(=O)C(C)(C)O4)n2)cc(OC)c1OC [Fostamatinib] | 0 | 0 | 4.12 | 0 | 2.69 | 7.38 | 4.77 | 0 | 0 | 1.13 | 5.15 | 4.31
CC(C)NC[C@@H](C(=O)N1CCN(c2ncnc3c2[C@H](C)C[C@H]3O)CC1)c1ccc(Cl)cc1 [GDC-0068] | 1.1 | 8.39 | 0.706 | 8.65 | 2.16 | 3.41 | 3.59 | 0 | 1.13 | 6.46 | 3.43 | 6.02
CCCc1cc(C)[nH]c(=O)c1CNC(=O)c1cc(-c2ccnc(N3CCN(C)CC3)c2)cc2c1cnn2C(C)C [GSK343] | 1.6 | 0 | 3.79 | 5.85 | 1.9 | 0 | 0 | 3.37 | 1.22 | 6.24 | 0 | 1.73
NC(=O)NO [Hydroxyurea] | 0 | 16.2 | 0 | 0 | 0 | 0 | 0 | 0 | 0 | 0 | 0 | 1.87
COc1cc2c(cc1-c1c(C)noc1C)ncc1[nH]c(=O)n([C@H](C)c3ccccn3)c12 [I-BET151] | 0 | 3.89 | 3.77 | 3.38 | 8.93 | 5.37 | 9.14 | 0 | 3.45 | 3.27 | 5.1 | 8.5
CC(C)n1nc(-c2ccc3oc(N)nc3c2)c2c(N)ncnc21 [INK128] | 11.3 | 16.5 | 11.5 | 13.5 | 14.2 | 12 | 13.8 | 4.56 | 8.44 | 20.3 | 14.9 | 15.9
O=NN(CCCl)C(=O)NC1CCCCC1 [Lomustine] | 0 | 0 | 0 | 0 | 0 | 0 | 0 | 0 | 0 | 0 | 0 | 0
O=C(O)CC[C@H]1CC[C@@](c2cc(F)ccc2F)(S(=O)(=O)c2ccc(Cl)cc2)CC1 [MK-0752] | 0 | 0 | 0 | 0 | 0 | 0 | 0 | 0 | 0 | 0 | 0 | 0
NC1(c2ccc(-c3nc4ccn5c(=O)[nH]nc5c4cc3-c3ccccc3)cc2)CCC1 [MK-2206] | 0 | 0 | 0 | 0.936 | 0 | 0 | 0.281 | 0 | 0.0487 | 3.43 | 0 | 2.74
NC(=O)c1cccc2cn(-c3ccc([C@@H]4CCCNC4)cc3)nc12 [MK-4827] | 3.73 | 0 | 0 | 1.06 | 0 | 0 | 0 | 0 | 2.22 | 0 | 0 | 0
N[C@@H](Cc1ccc(N(CCCl)CCCl)cc1)C(=O)O [Melphalan] | 16.6 | 21.3 | 19.2 | 21.5 | 17.4 | 17.6 | 16.2 | 17.2 | 19.1 | 20.5 | 11.5 | 14.4
O=C(c1cc(Cc2n[nH]c(=O)c3ccccc23)ccc1F)N1CCN(C(=O)C2CC2)CC1 [Olaparib] | 4.69 | 10.1 | 0 | 2.57 | 0 | 0 | 0 | 0 | 0 | 0 | 1.26 | 1.44
CO[C@H](C(=O)[C@@H](O)[C@@H](C)O)[C@@H]1Cc2cc3cc(O[C@H]4C[C@@H](O[C@@H]5C[C@@H](O)[C@H](O)[C@@H](C)O5)[C@H](O)[C@@H](C)O4)c(C)c(O)c3c(O)c2C(=O)[C@H]1O[C@H]1C[C@@H](O[C@@H]2C[C@@H](O)[C@@H](O[C@@H]3C[C@](C)(O)[C@H](O)[C@@H](C)O3)[C@@H](C)O2)[C@H](O)[C@@H](C)O1 [Plicamycin] | 2.49 | 18.2 | 6.47 | 6.69 | 4.1 | 4.28 | 4.2 | 3.99 | 5.55 | 3.86 | 2.12 | 7.16
C[C@]12C=CC(=O)C=C1CC[C@@H]1[C@@H]2C(=O)C[C@@]2(C)[C@H]1CC[C@]2(O)C(=O)CO [Prednisone] | 0 | 0 | 0 | 0 | 0 | 0 | 0 | 0 | 0 | 0 | 0.925 | 0
CO[C@H]1C[C@@H]2CC[C@@H](C)[C@@](O)(O2)C(=O)C(=O)N2CCCC[C@H]2C(=O)O[C@H]([C@H](C)C[C@@H]2CC[C@@H](O)[C@H](OC)C2)CC(=O)[C@H](C)/C=C(\C)[C@@H](O)[C@@H](OC)C(=O)[C@H](C)C[C@H](C)/C=C/C=C/C=C/1C [Sirolimus] | 3.52 | 7.01 | 2.79 | 12.2 | 8.85 | 0 | 7.08 | 0 | 1.94 | 5.69 | 6 | 9.21
CN1CCN(c2nc(C3=C(c4c[nH]c5ccccc45)C(=O)NC3=O)c3ccccc3n2)CC1 [Sotrastaurin] | 0 | 0 | 0 | 0 | 0 | 0 | 0 | 0 | 1.72 | 1.56 | 0 | 0
CC/C(=C(\c1ccccc1)c1ccc(OCCN(C)C)cc1)c1ccccc1 [Tamoxifen] | 0 | 4.03 | 0 | 0 | 0 | 0 | 0 | 0 | 0 | 1.07 | 0.0022 | 0
COc1cc2c(N3CCN(C(=O)Nc4ccc(OC(C)C)cc4)CC3)ncnc2cc1OCCCN1CCCCC1 [Tandutinib] | 0 | 0 | 0 | 0 | 0 | 0 | 0 | 0 | 0 | 0 | 0 | 0
C[C@@H](C(=O)O)c1ccc(-c2ccccc2)c(F)c1 [Tarenflurbil] | 0 | 0 | 0 | 0 | 0 | 0 | 0 | 0 | 0 | 0 | 0 | 0
Cn1nnc2c(C(N)=O)ncn2c1=O [Temozolomide] | 0 | 0 | 0 | 0 | 0 | 0 | 0 | 0 | 0 | 0 | 0 | 0
CN1CCc2c(c3ccccc3n2Cc2ccc(C(=O)NO)cc2)C1 [Tubastatin A] | 0 | 11.2 | 0 | 0 | 0.989 | 0 | 0 | 0 | 0 | 1.22 | 0 | 0.314
CC[C@@H]1C(=O)N(C)c2cnc(Nc3ccc(C(=O)N[C@H]4CC[C@H](N5CCN(CC6CC6)CC5)CC4)cc3OC)nc2N1C(C)C [Volasertib] | 12.9 | 16.3 | 8.07 | 14.8 | 12.6 | 8.92 | 9.68 | 10.3 | 8.16 | 19.9 | 7.64 | 15.1
